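Grown in 96-well plates, cells were treated for 48 hours with each compound at five concentrations. Insufficient inhibition: endpoint recorded as highest concentration tested. GI50 is the concentration that inhibits growth by half.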 Activity calls are given as the source filed them. Rule as the data show it: active = GI50 up to about 1.1 µM and inactive = higher.
Tests used:
Assay in all cases: NCI anticancer screen, dose series, 48 h
[1] = test system: 786-0
[2] = test system: A498
[3] = test system: A549
[4] = test system: ACHN
[5] = test system: CAKI-1
[6] = test system: CCRF-CEM
[7] = test system: COLO 205
[8] = test system: DLD-1
[9] = test system: DMS-114
[10] = test system: DMS-273
[11] = test system: EKVX
[12] = test system: HCC 2998
[13] = test system: HCT-116
[14] = test system: HCT-15
[15] = test system: HL-60
[16] = test system: HOP-18
[17] = test system: HOP-62
[18] = test system: HOP-92
[19] = test system: HT-29
[20] = test system: IGROV-1
[21] = test system: K562
[22] = test system: KM-20L2
[23] = test system: KM12
[24] = test system: LOX IMVI
[25] = test system: LXFL 529
[26] = test system: M14
[27] = test system: M19-MEL
[28] = test system: MOLT-4
[29] = test system: Malme-3M
[30] = test system: NCI-H226
[31] = test system: NCI-H23
[32] = test system: NCI-H460
[33] = test system: NCI-H522
[34] = test system: OVCAR-3
[35] = test system: OVCAR-4
[36] = test system: OVCAR-5
[37] = test system: OVCAR-8
[38] = test system: RPMI-8226
[39] = test system: RXF 393
[40] = test system: RXF 631
[41] = test system: SF-268
[42] = test system: SF-295
[43] = test system: SF-539
[44] = test system: SK-MEL-28
[45] = test system: SK-MEL-2
[46] = test system: SK-MEL-5
[47] = test system: SK-OV-3
[48] = test system: SN12C
[49] = test system: SNB-19
[50] = test system: SNB-75
[51] = test system: SNB-78
[52] = test system: SR
[53] = test system: SW-620
[54] = test system: TK-10
[55] = test system: U-251
[56] = test system: UACC-257
[57] = test system: UACC-62
[58] = test system: UO-31
[59] = test system: XF498

Measured: GI50

O=C(O)c1cc2ccc(Cl)cc2c(O)c1C1=CCCCC1
56.8 µM: [14]
inactive: [1] 52.8 µM | [2] 32.6 µM | [3] 39.9 µM | [4] 65 µM | [5] 33.2 µM | [6] 41.7 µM | [7] 67.8 µM | [8] 41.7 µM | [9] 24.8 µM | [10] 20 µM | [11] 43.4 µM | [12] > 100 µM | [13] 37.1 µM | [15] 30.8 µM | [16] 60.5 µM | [17] 33.7 µM | [18] 23.2 µM | [19] 46.1 µM | [20] 50 µM | [21] 33.1 µM | [22] 51.6 µM | [23] 42.4 µM | [24] 33 µM | [25] 35.3 µM | [26] 43.7 µM | [27] 35.8 µM | [28] 36.4 µM | [29] 50.1 µM | [30] 26.7 µM | [31] 26.4 µM | [32] 35.8 µM | [33] 29 µM | [34] 33.5 µM | [35] 23.2 µM | [36] 54.1 µM | [37] 40.4 µM | [38] 34.6 µM | [39] 36.5 µM | [40] 32.1 µM | [41] 52.2 µM | [42] 32.3 µM | [43] 36.6 µM | [44] 66.5 µM | [45] 19.9 µM | [46] 30.3 µM | [47] 42.7 µM | [48] 46.8 µM | [49] 39 µM | [50] 19.4 µM | [51] 27.4 µM | [52] 57.4 µM | [53] 44.5 µM | [54] 63.8 µM | [55] 36.9 µM | [56] 31.5 µM | [57] 24.5 µM | [58] 34.8 µM | [59] 18.7 µM

— ChEMBL document CHEMBL1201862, “PubChem BioAssay data set” (2004)
